This note sets out measurements from patent US20240209028A1, “CNP COMPOUNDS” (priority 2022, published 2024).

Series [1] in a line: High-Molecular-Weight-Protein (HMWP) formation by SEC-UPLC. The format is physicochemical. To be noted: increase over two weeks at 37° C., pH 6.5. The method, boiled down: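 Formulations at pH 4.0 or 6.5 incubated quiescently for two weeks at 37 °C; HMWP (peaks eluting before monomer, % of total peptide area) measured by SEC-UPLC, pH 2.4 mobile phase with 50% isopropanol, 50 °C, UV 215 nm. Value is HMWP increase, normalized to two weeks if needed.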

Series [2] can be described thus: PK of CNP compounds after i.v. and s.c. administration to rats. The note with it: male, Sprague Dawley, in vivo, rat. The method, boiled down:
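Plasma exposure was quantified by protein precipitation and turboflow LC-MS/MS in SRM mode. Rats received either 100 nmol/kg intravenously or 300 nmol/kg subcutaneously, with sublingual blood taken at baseline and at points up to 72 h. Per-animal NCA gave clearance as Dose/AUCinf, and results are averaged over 4-6 animals.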

Where two headings read alike, the source gives them in different places. Starred links: 1 amine or outer side, 2 acyl side, 3 side chain; linkers in the order of their positions; H or OH if unused. Positions of bridges follow the written chain, without caps; N, C: chain ends. Residues, ends and D or L forms follow the SMILES beside them. *: point of attachment. C18 diacid = O=C(O)CCCCCCCCCCCCCCCCC(=O)*; γGlu = O=C(O)[C@H](CCC(=O)[*:2])N[*:1]

For the molecule `CC[C@H](C)[C@@H]1NC(=O)[C@H](CCCNC(=N)N)NC(=O)[C@H](CC(=O)O)NC(=O)[C@H](CC(C)C)NC(=O)[C@@H]2CCCN2C(=O)[C@H](CC(C)C)NC(=O)CNC(=O)[C@H](Cc2ccccc2)NC(=O)[C@@H](NC(=O)CNC(=O)[C@H](CO)NC(=O)[C@H](CO)NC(=O)[C@H](CC(C)C)NC(=O)CNC(=O)[C@H](CCCCN)NC(=O)[C@H](CCCCN)NC(=O)[C@H](CCC(N)=O)NC(=O)[C@H](C)NC(=O)CNC(=O)[C@H](CCCCN)NC(=O)[C@H](Cc2ccc(O)cc2)NC(=O)[C@H](CCCCN)NC(=O)[C@H](CCCNC(=N)N)NC(=O)[C@H](C)NC(=O)[C@H](CCC(N)=O)NC(=O)[C@@H]2CCCN2C(=O)[C@H](Cc2c[nH]cn2)NC(=O)[C@H](CCC(=O)O)NC(=O)[C@H](CCC(N)=O)NC(=O)CC[C@H](NC(=O)CC[C@H](NC(=O)CC[C@H](NC(=O)CC[C@H](NC(=O)CC[C@H](NC(=O)CCCCCCCCCCCCCCCCC(=O)O)C(=O)O)C(=O)O)C(=O)O)C(=O)O)C(=O)O)CSSC[C@@H](C(=O)O)NC(=O)CNC(=O)[C@H](CC(C)C)NC(=O)CNC(=O)[C@H](CO)NC(=O)[C@H](CC(C)C)NC(=O)[C@H](CO)NC(=O)CNC1=O` [compound 9482] ({C18 diacid-γGlu-γGlu-γGlu-γGlu-γGlu}-QEHPQARKYKGAQKKGLSSGCFGLPLDRIGSLSGLGC-OH; disulfide 21-37), in series [1], the “2-Week HMWP formation at pH 6.5 (%), % relative to total peak area” value turned out to be 1.96%. The clearance in series [2] (iv, i.v., about 100 nmol/kg, read-out: Cl (L/hr/kg), i.v. administration (converted)) is 0.00549 L/h/kg. In addition, the half-life was 14.5 h in series [2] (iv, i.v., about 100 nmol/kg, read-out: T½ (hr), i.v. administration (converted)) and 18.6 h in series [2] (sc, s.c., about 300 nmol/kg, read-out: T½ (hr), s.c. administration (converted)). In series [2] (sc, s.c. bioavailability, about 300 nmol/kg, read-out: F (%), s.c. administration), the bioavailability was determined as 71.5%.
